From publication PMC8781304, “Arene-Ruthenium(II) Complexes with Carbothiamidopyrazoles as a Potential Alternative for Antibiotic Resistance in Human” (Molecules, 2022)
Where “and” joins values, the source holds several entries; their conditions need not be identical. Equal values may be shown once.

Tests used:
[1] = test system: Candida albicans ATCC 10231; assay: MIC and MBC/MFC by broth microdilution; type: cell-based; conditions: C. albicans ATCC 10231
Method: (§1) Reference strains of bacteria and fungi: Staphylococcus aureus ATCC 29213, Staphylococcus epidermidis ATCC 12228, Enterococcus faecalis ATCC 29212, Pseudomonas aeruginosa ATCC 25619, Proteus vulgaris ATCC 8427, and Candida albicans ATCC 10231 (Manassas, VA, USA) were used to screen the antimicrobial activity of the arene-ruthenium(II) complexes 3a-3d, NH4PF6 and selected antibiotics. The microorganisms were grown for 24 h (bacteria) or 48 h (fungi) in 35-37 °C in tryptic-soy agar (TSA; BTL Sp. z o.o., Łódź, Poland) or Sabouraud's dextrose agar (SDA; BTL Sp. z o.o., Łódź, Poland) according to nutritional requirements. Microbial suspensions at a density of about 5 × 10^5 CFU/mL were prepared in Mueller-Hinton broth (MHB; BTL Sp. z o.o., Łódź, Poland) or RPMI-1640 medium (Sigma, St. Louis, MO, USA) for bacteria and fungi, respectively. […] Louis, MO, USA). Stock solutions of the lyophilized compounds were freshly prepared in 100% DMSO (POCh, Gliwice, Poland) for the complexes, or in water for injection (Sigma, St. Louis, MO, USA) in the case of antibiotics. […] MIC and MBC/MFC were defined as the lowest concentrations of the compounds inhibiting bacterial/fungal growth or able to kill added microbial inoculum, respectively, and were evaluated as described by […] et al.. Experiments were carried out in duplicate.

[2] = test system: Enterococcus faecalis ATCC 29212; assay: MIC and MBC/MFC by broth microdilution; type: cell-based; conditions: E. faecalis ATCC 29212
Method: as §1

[3] = test system: Proteus vulgaris ATCC 8427; assay: MIC and MBC/MFC by broth microdilution; type: cell-based; conditions: P. vulgaris ATCC 8427
Method: as §1

[4] = test system: Pseudomonas aeruginosa ATCC 25619; assay: MIC and MBC/MFC by broth microdilution; type: cell-based; conditions: P. aeruginosa ATCC 25619
Method: as §1

[5] = test system: Staphylococcus aureus ATCC 29213; assay: MIC and MBC/MFC by broth microdilution; type: cell-based; conditions: S. aureus ATCC 29213
Method: as §1

[6] = test system: Staphylococcus epidermidis ATCC 12228; assay: MIC and MBC/MFC by broth microdilution; type: cell-based; conditions: S. epidermidis ATCC 12228
Method: as §1

S. aureus ATCC 29213 [7] = assay: Synergy with oxacillin and vancomycin, partial checkerboard broth microdilution; type: cell-based, Staphylococcus aureus; conditions: S. aureus ATCC 29213; for FIC (Oxa) / FIC (Van): MIC antibiotic in combination/MIC antibiotic alone; for MIC Oxa in Combination: oxacillin with the complex at ½ MIC (NH4PF6 250 µg/mL); for MIC Van in Combination: vancomycin with the complex at ½ MIC (NH4PF6 250 µg/mL)
S. aureus ATCC 29213 [8] = assay: Time-kill test; type: cell-based, Staphylococcus aureus; conditions: 1 × MIC
Method: (§2) The time-kill experiments were performed as described previously. Briefly, inocula were prepared in TSB medium (TSB; […] BTL Sp. z o.o., Łódź, Poland). All samples were incubated at 35 °C and 80 rpm for varied time intervals (2, 4, 6, 12, 18, 24, 48h). The percentage of dead cells was calculated according to the growth control by determining the number of living cells (CFU/mL) of each tube using the agar plate count method. Samples were immediately serially diluted ten-fold in 0.01 M phosphate buffered saline (PBS, Bimed Lublin S.A., Lublin, Poland) at pH 7.0 and 10 μL aliquots were spot-inoculated in duplicate onto MHA plates. Agar plates were incubated at 37 °C overnight before determining the viable count. Two independent experiments were carried out.

[9] = test system: S. epidermidis ATCC 12228; assay: Time-kill test; type: cell-based, Staphylococcus epidermidis; conditions: 1 × MIC
Method: as §2

[10] = test system: Staphylococcus aureus ATCC 29213; assay: Fluorescence microscopy, Hoechst 33258 / propidium iodide viability; type: cell-based; conditions: S. aureus ATCC 29213; MIC concentration, 24 h
Method: (§3) Staphylococcus aureus ATCC 29213 and Staphylococcus epidermidis ATCC 12228 strains were treated with tested compounds 2a–2d and 3a–3d at a concentration 1 × MIC for 24h, while untreated cells were used as a growth control. After incubation, the cells were harvested and a suspension of 1 × 10^5 cells/mL in PBS was prepared. Following this, 1 µl of the fluorescent dyes Hoechst 33258 and propidium iodide (15 µg/mL each) (Sigma, St. Louis, MO, USA) were added. The obtained mixture was incubated in the dark at room temperature for 15–20 min. After incubation, the cell suspensions, placed on glass slides, were analyzed under an Olympus IX 70 fluorescence microscope (Shinjuku, Tokyo, Japan), using a 360–370 nm UV filter. Photos were taken at 10 × 20 magnification.

[11] = test system: Staphylococcus epidermidis ATCC 12228; assay: as above; type: cell-based; conditions: S. epidermidis ATCC 12228; MIC concentration, 24 h
Method: as §3

[12] = test system: human foreskin fibroblast HFF-1 (ATCC-SCRC-1041); assay: Cytotoxicity, MTT reduction assay; type: cell-based; conditions: HFF-1, MTT; for IC50: 24 h, tested 3.9–500 μM
Method: The cytotoxicity of arene-ruthenium(II) complexes 3a–3d was determined using the MTT (3-(4,5-dimethylthiazol-2-yl)-2,5-diphenyltetrazolium bromide; Sigma, St. Louis, MO, USA) reduction assay and a human foreskin fibroblast HFF-1 culture (ATCC-SCRC-1041) (LGC Standards Sp. z o.o., Poland) at a final concentration range of 3.9–500 µM. The HFF-1 cells were cultured in Dulbecco’s Modified Eagle’s Medium (DMEM; Sigma, St. Louis, MO, USA) with 15% fetal bovine serum (FBS; BioWest, Nuaillé, France) and penicillin/streptomycin (100 × stock solution; BioWest, Nuaillé, France), 1 × 10^6 cell/mL (100 µL/well) in 96-well tissue culture plates (Nunc, Roskilde, Denmark) for 24 h at 37 °C/5% CO2. The cells were then exposed to arene-ruthenium(II) complexes for 24 h at 37 °C. The control (untreated) cells were exposed to culture medium alone or culture medium containing 2% DMSO to exclude the effect of the solvent used to prepare the stock solutions of the tested complexes. Next, fresh culture medium (100 µL/well) and MTT (1.5 mg/mL, 50 µL/well) were added, and cells were incubated for two hours under the above conditions. MTT was […] blue formazan crystals produced by the metabolically active cells. Finally, the MTT solution was removed and replaced with 100 µL/well of 20% sodium dodecyl sulfate (SDS; Sigma, St. Louis, MO, USA) for 24 h (room temperature) to dissolve the blue formazan. Based on the absorbance (λ = 550 nm) of tested and control cells (100% viability), the percentage of cell viability after exposure was calculated. For each sample, the experiment was performed twice.

| Compound | MBC/MFC [1] [µg/mL] | MIC [1] [µg/mL] | MBC/MFC [2] [µg/mL] | MIC [2] [µg/mL] | MBC/MFC [3] [µg/mL] | MIC [3] [µg/mL] | MBC/MFC [4] [µg/mL] | MIC [4] [µg/mL] | MBC/MFC [5] [µg/mL] | MIC [5] [µg/mL] | MBC/MFC [6] [µg/mL] | MIC [6] [µg/mL] | FIC (Oxa) (S. aureus ATCC 29213 [7]) | FIC (Van) (S. aureus ATCC 29213 [7]) | MIC Oxa in Combination (S. aureus ATCC 29213 [7]) [µg/mL] | MIC Van in Combination (S. aureus ATCC 29213 [7]) [µg/mL] | Time-kill: bacteriostatic or bactericidal (S. aureus ATCC 29213 [8]) | Time-kill: bacteriostatic or bactericidal [9] | Change in bacterial viability (Hoechst 33258 / PI fluorescence) [10] | Change in bacterial viability (Hoechst 33258 / PI fluorescence) [11] | further results |
| --- | --- | --- | --- | --- | --- | --- | --- | --- | --- | --- | --- | --- | --- | --- | --- | --- | --- | --- | --- | --- | --- |
| Cc1cc(C)[n+]2n1C(N)=[S+][Ru-]2[Cl].Cc1ccc(C(C)C)cc1.F[P-](F)(F)(F)(F)F [Compound 3a] | >1000 | 500 | 125 | 125 | >1000 | >1000 | >1000 | >1000 | 62.5 | 62.5 | 125 | 125 | 1 | 1 | 0.250 | 0.50 | bacteriostatic | bacteriostatic | Less changes in cell survival | Less changes in cell survival | Concentration above which cytotoxicity was seen [12]: above 250 μM; IC50 [12]: 380 µM and > 350 µM |
| CCc1cc(CC)[n+]2n1C(N)=[S+][Ru-]2[Cl].Cc1ccc(C(C)C)cc1.F[P-](F)(F)(F)(F)F [Compound 3b] | >1000 | 1000 | 125 | 62.5 | >1000 | >1000 | >1000 | >1000 | 62.5 | 62.5 | 62.5 | 31.2 | 0.5 | 0.25 | 0.125 | 0.125 | bacteriostatic | bacteriostatic | Less changes in cell survival | Less changes in cell survival | Correlation with Oxa and Van (synergy), in words (S. aureus ATCC 29213 [7]): synergistic effects; Concentration above which cytotoxicity was seen [12]: above 250 μM; IC50 [12]: 355 µM and > 350 µM |
| [(η^6-p-cymene)Ru(1-[amino(thioxo)methyl]-5-hydroxy-3-phenyl-1H-pyrazole)PF6 [Compound 3c] | >1000 | >1000 | 250 | <31.2 | >1000 | >1000 | >1000 | >1000 | 31.2 | 15.6 | 31.2 | 31.2 | 1 | 1 | 0.250 | 0.50 | bacteriostatic | bactericidal | greatest changes in bacterial viability | greatest changes in bacterial viability | IC50 [12]: 264 µM |
